In PubChem BioAssay AID1963420 (Molecular Pharmacology Branch, DTP, NCI, 2024):

System: 494315-158-R-J1-PDC complex spheroid growth, percent test/control
Assay: Anticancer human tumor 494315-158-R-J1-PDC patient-derived soft tissue sarcoma cell line growth inhibition [Asc]
Conditions: for IC50: curve of first compound; for viability, T/C: stronger effect = lower value
Outline: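 Complex spheroids combining tumor cells with HUVEC endothelial cells and human MSCs, at 37 degrees C, 5% CO2; agents tested alone or combined, half-log dilutions from at or near clinical Cmax, or 10 microM if Cmax unknown.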
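Note: compound exposure lasted seven days after spheroids formed for three days.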

Structure (SMILES): C=C(F)C(=O)N1CCN(c2nc(OCC3CCCN3C)nc3c2CCN(c2cccc4cccc(Cl)c24)C3)CC1CC#N (stereo not given) + CNC(C)C(=O)NC1CN(S(=O)(=O)c2cccc(S(=O)(=O)N3CCC4CCC(C(=O)NC(c5ccccc5)c5ccccc5)N4C(=O)C(NC(=O)C(C)NC)C3)c2)CCC2CCC(C(=O)NC(c3ccccc3)c3ccccc3)N2C1=O
- IC50 (second compound 0.01 µM): 1560 nM
- IC50 (second compound 0.0316 µM): 513 nM
- IC50 (second compound 0.1 µM): 1020 nM
- IC50 (second compound 0.316 µM): < 31.6 nM
- IC50 (second compound 1 µM): < 31.6 nM
- viability, T/C (second compound 0.01 µM, first compound 0.0316 µM): 68.7%
- viability, T/C (second compound 0.01 µM, first compound 0.1 µM): 70.6%
- viability, T/C (second compound 0.01 µM, first compound 0.316 µM): 61.5%
- viability, T/C (second compound 0.01 µM, first compound 1 µM): 62.9%
- viability, T/C (second compound 0.01 µM, first compound 3.16 µM): 30.8%
- viability, T/C (second compound 0.01 µM, first compound 10 µM): 0.15%
- viability, T/C (second compound 0.0316 µM, first compound 0.0316 µM): 51.8%
- viability, T/C (second compound 0.0316 µM, first compound 0.1 µM): 56.5%
- viability, T/C (second compound 0.0316 µM, first compound 0.316 µM): 46.2%
- viability, T/C (second compound 0.0316 µM, first compound 1 µM): 48.5%
- viability, T/C (second compound 0.0316 µM, first compound 3.16 µM): 20.6%
- viability, T/C (second compound 0.0316 µM, first compound 10 µM): 0.13%
- viability, T/C (second compound 0.1 µM, first compound 0.0316 µM): 50.7%
- viability, T/C (second compound 0.1 µM, first compound 0.1 µM): 48%
- viability, T/C (second compound 0.1 µM, first compound 0.316 µM): 52.3%
- viability, T/C (second compound 0.1 µM, first compound 1 µM): 51.7%
- viability, T/C (second compound 0.1 µM, first compound 3.16 µM): 18.9%
- viability, T/C (second compound 0.1 µM, first compound 10 µM): 0.11%
- viability, T/C (second compound 0.316 µM, first compound 0.0316 µM): 44.9%
- viability, T/C (second compound 0.316 µM, first compound 0.1 µM): 43.4%
- viability, T/C (second compound 0.316 µM, first compound 0.316 µM): 38.8%
- viability, T/C (second compound 0.316 µM, first compound 1 µM): 45.7%
- viability, T/C (second compound 0.316 µM, first compound 3.16 µM): 12.8%
- viability, T/C (second compound 0.316 µM, first compound 10 µM): 0.11%
- viability, T/C (second compound 1 µM, first compound 0.0316 µM): 34.3%
- viability, T/C (second compound 1 µM, first compound 0.1 µM): 39.9%
- viability, T/C (second compound 1 µM, first compound 0.316 µM): 36.7%
- viability, T/C (second compound 1 µM, first compound 1 µM): 39.8%
- viability, T/C (second compound 1 µM, first compound 3.16 µM): 8.22%
- viability, T/C (second compound 1 µM, first compound 10 µM): 0.18%

Structure (SMILES): Cc1nc(N2CCC3(CC2)COC(C)C3N)c(CO)nc1Sc1ccnc(N)c1Cl (stereo not given) + CNC(C)C(=O)NC1CN(S(=O)(=O)c2cccc(S(=O)(=O)N3CCC4CCC(C(=O)NC(c5ccccc5)c5ccccc5)N4C(=O)C(NC(=O)C(C)NC)C3)c2)CCC2CCC(C(=O)NC(c3ccccc3)c3ccccc3)N2C1=O
- IC50 (second compound 0.01 µM): > 3000 nM
- IC50 (second compound 0.0316 µM): > 3000 nM
- IC50 (second compound 0.1 µM): 941 nM
- IC50 (second compound 0.316 µM): < 9.49 nM
- IC50 (second compound 1 µM): < 9.49 nM
- viability, T/C (second compound 0.01 µM, first compound 0.00949 µM): 72.2%
- viability, T/C (second compound 0.01 µM, first compound 0.03 µM): 59.6%
- viability, T/C (second compound 0.01 µM, first compound 0.0949 µM): 64.1%
- viability, T/C (second compound 0.01 µM, first compound 0.3 µM): 60.8%
- viability, T/C (second compound 0.01 µM, first compound 0.949 µM): 62.7%
- viability, T/C (second compound 0.01 µM, first compound 3 µM): 52.1%
- viability, T/C (second compound 0.0316 µM, first compound 0.00949 µM): 60.7%
- viability, T/C (second compound 0.0316 µM, first compound 0.03 µM): 69.7%
- viability, T/C (second compound 0.0316 µM, first compound 0.0949 µM): 64.3%
- viability, T/C (second compound 0.0316 µM, first compound 0.3 µM): 55.6%
- viability, T/C (second compound 0.0316 µM, first compound 0.949 µM): 60.8%
- viability, T/C (second compound 0.0316 µM, first compound 3 µM): 51%
- viability, T/C (second compound 0.1 µM, first compound 0.00949 µM): 59.7%
- viability, T/C (second compound 0.1 µM, first compound 0.03 µM): 55.6%
- viability, T/C (second compound 0.1 µM, first compound 0.0949 µM): 50.6%
- viability, T/C (second compound 0.1 µM, first compound 0.3 µM): 49.1%
- viability, T/C (second compound 0.1 µM, first compound 0.949 µM): 59.1%
- viability, T/C (second compound 0.1 µM, first compound 3 µM): 43.7%
- viability, T/C (second compound 0.316 µM, first compound 0.00949 µM): 48.3%
- viability, T/C (second compound 0.316 µM, first compound 0.03 µM): 48.6%
- viability, T/C (second compound 0.316 µM, first compound 0.0949 µM): 47.2%
- viability, T/C (second compound 0.316 µM, first compound 0.3 µM): 37.1%
- viability, T/C (second compound 0.316 µM, first compound 0.949 µM): 42.8%
- viability, T/C (second compound 0.316 µM, first compound 3 µM): 49.5%
- viability, T/C (second compound 1 µM, first compound 0.00949 µM): 38.7%
- viability, T/C (second compound 1 µM, first compound 0.03 µM): 44.2%
- viability, T/C (second compound 1 µM, first compound 0.0949 µM): 44.3%
- viability, T/C (second compound 1 µM, first compound 0.3 µM): 36.8%
- viability, T/C (second compound 1 µM, first compound 0.949 µM): 40%
- viability, T/C (second compound 1 µM, first compound 3 µM): 39.2%
